The source of these data is PubChem BioAssay AID256 (DTP/NCI, 2004).

Inconclusive results and toxic doses are left out.

This assay deals with CD2F1 mice, L1210 leukemia ip, survival T/C. Description: NCI In Vivo Anticancer Drug Screen. Data for tumor model L1210 Leukemia (intraperitoneal) in CD2F1 (CDF1) mice. The conditions noted are these: higher = longer survival. The method, boiled down: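 Mice carrying a transplanted tumor received test compound or vehicle alone. The value is the measurement in the treated group divided by that in the vehicle-treated control group.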

[1] abbreviates: endpoint: mean survival time, dose: 100.0 mg/kg/injection, schedule: Q01DX009 (ip), vehicle: saline with Tween-80.
Where [2] appears, read: endpoint: mean survival time, dose: 200.0 mg/kg/injection, schedule: Q01DX009 (ip), vehicle: saline with Tween-80.
Where [3] appears, read: endpoint: mean survival time, dose: 400.0 mg/kg/injection, schedule: Q01DX009 (ip), vehicle: saline with Tween-80.
Where [4] appears, read: endpoint: mean survival time, dose: 100.0 mg/kg/injection, schedule: Q01DX001 (ip), vehicle: saline with Tween-80.
[5] abbreviates: endpoint: mean survival time, dose: 200.0 mg/kg/injection, schedule: Q01DX001 (ip), vehicle: saline with Tween-80.
[6] abbreviates: endpoint: mean survival time, dose: 400.0 mg/kg/injection, schedule: Q01DX001 (ip), vehicle: saline with Tween-80.

Take `CC(C)[C@]12O[C@H]1[C@@H]1O[C@]13[C@]1(O[C@H]1C[C@H]1C4=C(C(=O)OC4)[C@@H](O)C[C@@]13C)[C@@H]2O`: the T/C runs as follows: (endpoint: mean survival time, dose: 0.8 micrograms/kg/injection, schedule: Q01DX009 (ip), vehicle: saline + alcohol) 94 % of control; (endpoint: mean survival time, dose: 1.6 micrograms/kg/injection, schedule: Q01DX009 (ip), vehicle: saline + alcohol) 92 % of control; (endpoint: mean survival time, dose: 3.1 micrograms/kg/injection, schedule: Q01DX009 (ip), vehicle: saline + alcohol) 96 % of control; (endpoint: mean survival time, dose: 6.3 micrograms/kg/injection, schedule: Q01DX009 (ip), vehicle: saline + alcohol) 92 % of control; (endpoint: mean survival time, dose: 12.5 micrograms/kg/injection, schedule: Q01DX009 (ip), vehicle: saline + alcohol) 89 % of control; (endpoint: mean survival time, dose: 25.0 micrograms/kg/injection, schedule: Q01DX009 (ip), vehicle: saline + alcohol) 93 % of control. Further, the T/C runs as follows: (endpoint: mean survival time, dose: 32.0 micrograms/kg/injection, schedule: Q01DX009 (ip), vehicle: saline + alcohol) 106 % of control; (endpoint: mean survival time, dose: 50.0 micrograms/kg/injection, schedule: Q01DX009 (ip), vehicle: saline + alcohol) 107 % of control; (endpoint: mean survival time, dose: 63.0 micrograms/kg/injection, schedule: Q01DX009 (ip), vehicle: saline + alcohol) 121 % of control; (endpoint: mean survival time, dose: 100.0 micrograms/kg/injection, schedule: Q01DX009 (ip), vehicle: saline + alcohol) 115 % of control; (endpoint: mean survival time, dose: 200.0 micrograms/kg/injection, schedule: Q01DX009 (ip), vehicle: saline + alcohol) 156 % of control; (endpoint: mean survival time, dose: 250.0 micrograms/kg/injection, schedule: Q01DX009 (ip), vehicle: saline + alcohol) 188 % of control. The T/C is 207 % of control (endpoint: mean survival time, dose: 400.0 micrograms/kg/injection, schedule: Q01DX009 (ip), vehicle: saline + alcohol); 93 % of control (endpoint: mean survival time, dose: 500.0 micrograms/kg/injection, schedule: Q01DX009 (ip), vehicle: saline + alcohol); 111 % of control (endpoint: median survival time, dose: 8.0 micrograms/kg/injection, schedule: Q03HX024 (ip), vehicle: saline + alcohol); 110 % of control (endpoint: median survival time, dose: 8.0 micrograms/kg/injection, schedule: Q03HX024 (ip), vehicle: saline); 117 % of control (endpoint: median survival time, dose: 16.0 micrograms/kg/injection, schedule: Q03HX016 (ip), vehicle: saline + alcohol); 109 % of control (endpoint: median survival time, dose: 30.0 micrograms/kg/injection, schedule: Q01DX009 (ip), vehicle: saline). For the same molecule, the T/C by setting is: (endpoint: median survival time, dose: 30.0 micrograms/kg/injection, schedule: Q01DX009 (sc), vehicle: saline) 103 % of control; (endpoint: median survival time, dose: 31.2 micrograms/kg/injection, schedule: Q01DX009 (ip), vehicle: saline + alcohol) 101 % of control; (endpoint: median survival time, dose: 31.2 micrograms/kg/injection, schedule: Q01DX009 (sc), vehicle: saline + alcohol) 98 % of control; (endpoint: median survival time, dose: 31.2 micrograms/kg/injection, schedule: Q03HX024 (ip), vehicle: saline + alcohol) 151 % of control; (endpoint: median survival time, dose: 60.0 micrograms/kg/injection, schedule: Q01DX009 (sc), vehicle: saline) 102 % of control; (endpoint: median survival time, dose: 60.0 micrograms/kg/injection, schedule: Q03HX024 (ip), vehicle: saline) 191 % of control. The T/C by setting is: (endpoint: median survival time, dose: 62.0 micrograms/kg/injection, schedule: Q03HX008 (ip), vehicle: saline + alcohol) 123 % of control; (endpoint: median survival time, dose: 62.5 micrograms/kg/injection, schedule: Q01DX009 (ip), vehicle: saline + alcohol) 122 % of control; (endpoint: median survival time, dose: 62.5 micrograms/kg/injection, schedule: Q01DX009 (sc), vehicle: saline + alcohol) 104 % of control; (endpoint: median survival time, dose: 62.5 micrograms/kg/injection, schedule: Q03HX016 (ip), vehicle: saline + alcohol) 118 % of control; (endpoint: median survival time, dose: 62.5 micrograms/kg/injection, schedule: Q03HX024 (ip), vehicle: saline + alcohol) 166 % of control; (endpoint: median survival time, dose: 62.5 micrograms/kg/injection, schedule: Q04DX003 (ip), vehicle: saline + alcohol) 97 % of control. Besides, the T/C by setting is: (endpoint: median survival time, dose: 125.0 micrograms/kg/injection, schedule: Q01DX009 (sc), vehicle: saline + alcohol) 104 % of control; (endpoint: median survival time, dose: 125.0 micrograms/kg/injection, schedule: Q03HX008 (ip), vehicle: saline + alcohol) 118 % of control; (endpoint: median survival time, dose: 125.0 micrograms/kg/injection, schedule: Q03HX016 (ip), vehicle: saline + alcohol) 111 % of control; (endpoint: median survival time, dose: 125.0 micrograms/kg/injection, schedule: Q03HX024 (ip), vehicle: saline + alcohol) 120 % of control; (endpoint: median survival time, dose: 125.0 micrograms/kg/injection, schedule: Q04DX003 (ip), vehicle: saline + alcohol) 101 % of control; (endpoint: median survival time, dose: 125.0 micrograms/kg/injection, schedule: Q08DX002 (ip), vehicle: saline + alcohol) 98 % of control. The T/C is 151 % of control (endpoint: median survival time, dose: 130.0 micrograms/kg/injection, schedule: Q01DX009 (ip), vehicle: saline); 109 % of control (endpoint: median survival time, dose: 130.0 micrograms/kg/injection, schedule: Q01DX009 (sc), vehicle: saline); 113 % of control (endpoint: median survival time, dose: 250.0 micrograms/kg/injection, schedule: Q01DX001 (ip), vehicle: saline + alcohol); 104 % of control (endpoint: median survival time, dose: 250.0 micrograms/kg/injection, schedule: Q01DX001 (sc), vehicle: saline + alcohol); 184 % of control (endpoint: median survival time, dose: 250.0 micrograms/kg/injection, schedule: Q01DX009 (ip), vehicle: saline + alcohol); 203 % of control (endpoint: median survival time, dose: 250.0 micrograms/kg/injection, schedule: Q01DX009 (ip), vehicle: saline). The T/C (endpoint: median survival time, dose: 250.0 micrograms/kg/injection, schedule: Q01DX009 (sc), vehicle: saline) is 152 % of control; the T/C (endpoint: median survival time, dose: 250.0 micrograms/kg/injection, schedule: Q04DX003 (ip), vehicle: saline + alcohol) is 113 % of control; the T/C (endpoint: median survival time, dose: 250.0 micrograms/kg/injection, schedule: Q08DX002 (ip), vehicle: saline + alcohol) was 109 % of control; the T/C (endpoint: median survival time, dose: 500.0 micrograms/kg/injection, schedule: Q01DX001 (ip), vehicle: saline + alcohol) was 109 % of control; the T/C (endpoint: median survival time, dose: 500.0 micrograms/kg/injection, schedule: Q01DX001 (sc), vehicle: saline + alcohol) is 107 % of control; the T/C (endpoint: median survival time, dose: 500.0 micrograms/kg/injection, schedule: Q01DX009 (ip), vehicle: saline + alcohol) is 239 % of control. Further, the T/C reads like this: (endpoint: median survival time, dose: 500.0 micrograms/kg/injection, schedule: Q01DX009 (ip), vehicle: saline) 255 % of control; (endpoint: median survival time, dose: 500.0 micrograms/kg/injection, schedule: Q01DX009 (sc), vehicle: saline + alcohol) 193 % of control; (endpoint: median survival time, dose: 500.0 micrograms/kg/injection, schedule: Q01DX009 (sc), vehicle: saline) 87 % of control; (endpoint: median survival time, dose: 500.0 micrograms/kg/injection, schedule: Q04DX003 (ip), vehicle: saline + alcohol) 122 % of control; (endpoint: median survival time, dose: 500.0 micrograms/kg/injection, schedule: Q08DX002 (ip), vehicle: saline + alcohol) 108 % of control; (endpoint: median survival time, dose: 1000.0 micrograms/kg/injection, schedule: Q01DX001 (ip), vehicle: saline + alcohol) 109 % of control. Moreover, the T/C was 115 % of control (endpoint: median survival time, dose: 1000.0 micrograms/kg/injection, schedule: Q04DX003 (ip), vehicle: saline + alcohol) and 97 % of control (endpoint: median survival time, dose: 1000.0 micrograms/kg/injection, schedule: Q08DX002 (ip), vehicle: saline + alcohol).

Regarding `COC1OC2COC(c3ccccc3)OC2C2OC12` (centres undefined), the T/C under setting [1] was 94 % of control, the T/C under setting [2] is 92 % of control and the T/C under setting [3] is 97 % of control.

Consider `C/C(=N/O)c1ccc2c(c1)C(C)c1ccccc1-2` (centres undefined), for which the T/C (endpoint: mean survival time, dose: 100.0 mg/kg/injection, schedule: Q01DX001 (ip), vehicle: saline) was 112 % of control; the T/C (endpoint: mean survival time, dose: 200.0 mg/kg/injection, schedule: Q01DX001 (ip), vehicle: saline) was 110 % of control; the T/C (endpoint: mean survival time, dose: 400.0 mg/kg/injection, schedule: Q01DX001 (ip), vehicle: saline) was 104 % of control.

On to `CC(CN)OCc1ccccc1` (centres undefined), for which the T/C was 98 % of control (endpoint: mean survival time, dose: 25.0 mg/kg/injection, schedule: Q04DX003 (ip), vehicle: saline); 101 % of control (endpoint: mean survival time, dose: 50.0 mg/kg/injection, schedule: Q04DX003 (ip), vehicle: saline); 101 % of control (endpoint: mean survival time, dose: 100.0 mg/kg/injection, schedule: Q04DX003 (ip), vehicle: saline).

`C(=C\c1cccnc1)/c1ccncc1`: the T/C reads like this: under setting [1], 97 % of control; under setting [2], 95 % of control; under setting [3], 106 % of control.

Regarding `OC1CCC2CCC1C2` (centres undefined), the T/C is 102 % of control under setting [4], 104 % of control under setting [5] and 101 % of control under setting [6].

For `C=C(Br)CNC(=O)C(O)(c1ccccc1)c1ccccc1`, the T/C is, setting by setting: under setting [4], 103 % of control; under setting [5], 87 % of control; under setting [6], 89 % of control.
